Measurements taken from patent publication US7407940B2, “Antimicrobial hexapeptides” (Helix BioMedix Inc., priority 2005, dated 2008).
Converted amounts (≈) assume the structure as drawn. Read-outs that look alike come from different tables or passages of the source. Where no end group is shown, it is not given here. [ ]: non-standard residue; d: D form. The star is where a group is joined. Octanoyl = CCCCCCCC(=O)*

Assays:
Escherichia coli UB1005 = experiment: MIC, broth microdilution, E. coli; assay type: cell-based; set-up: unit not given here
Description: (§1) MICs (minimal inhibitory concentrations) were determined for the hexapeptides of interest using a slightly modified version of the NCCLS (National Committee for Clinical Laboratory Standards) broth microdilution method as described previously (Steinberg et al., AAC 41: 1738, 1997). Briefly, antimicrobial agents were prepared as 10× concentrates in the most appropriate solvent. For the hexapeptide, 0.01% acetic acid containing 0.2% bovine serum albumin as a carrier protein was used. Inocula were prepared by resuspending colonies from a BAP (please spell out this term) in medium and adjusting the suspension to match that of a 0.5 McFarland standard. The suspension was diluted into fresh medium (as recommended by NCCLS for the organism) to give 2×10^5 to 7×10^5 CFU/ml for bacteria or 2×10^3 to 7×10^3 CFU/ml for Candida. After dispensing 100 μl aliquots of the microbial suspension into each well of a 96-well polypropylene microtiter plate, 11 μl of test compound was added. The MIC was defined as the lowest concentration of drug which prevented visible turbidity after 16 to 20 hours (bacteria) or 46 to 50 hours (Candida) at 35° C.

[1] = tested on: Salmonella typhimurium 14028S; experiment: MIC, broth microdilution, S. typhimurium; assay type: cell-based; set-up: unit not given here; conditions: S. typhimurium 14028S
Description: as §1

MRSA = experiment: Kill curve in 10% sheep serum-phosphate buffer against MRSA; assay type: cell-based, S. aureus; conditions: 10% serum / biological environments
Candida albicans = assay type: cell-based
Description: as §1

P. acnes = experiment: Activity against extended panel of P. acnes; assay type: cell-based; set-up: unit not given here
Excerpt: A very promising application for short bioactive peptides is for dermatological indications such as acne.

[2] = T.W. Candida #184, azole resistant clinical isolate
[3] = T.W. Candida #185 (CDR1,2), azole resistant clinical isolate
[4] = T.W. Candida #186 (CDR1,2), azole resistant clinical isolate
[5] = T.W. Candida #187 (CDR1,2), azole resistant clinical isolate
[6] = T.W. Candida #192 (CDR1,2), azole resistant clinical isolate
[7] = T.W. Candida #193, azole resistant clinical isolate
[8] = T.W. Candida #194, azole resistant clinical isolate
[9] = T.W. Candida #195, azole resistant clinical isolate
[10] = T.W. Candida #196 (CDR1,2), azole resistant clinical isolate
[11] = T.W. Candida #197, azole resistant clinical isolate
[12] = T.W. Candida #198, azole resistant clinical isolate
[13] = T.W. Candida #199 (CDR1,2), azole resistant clinical isolate

KPVKFK-NH2 [SEQ ID NO: 31]
Anti-microbial activity (MIC) (Escherichia coli UB1005): >128
Anti-microbial activity (MIC) [1]: >128

FKLAPW-NH2 [SEQ ID NO: 16]
Anti-microbial activity (MIC) (Escherichia coli UB1005): >128
Anti-microbial activity (MIC) [1]: >128

VAKLAK-NH2 [SEQ ID NO: 19]
Anti-microbial activity (MIC) (Escherichia coli UB1005): >128
Anti-microbial activity (MIC) [1]: >128

KPWKFK-NH2 [SEQ ID NO: 29]
Anti-microbial activity (MIC) (Escherichia coli UB1005): >128
Anti-microbial activity (MIC) [1]: >128

KLAKLL-NH2 [SEQ ID NO: 27]
Anti-microbial activity (MIC) (Escherichia coli UB1005): >128
Anti-microbial activity (MIC) [1]: >128

KWKKLA-NH2 [SEQ ID NO: 22]
Anti-microbial activity (MIC) (Escherichia coli UB1005): >128
Anti-microbial activity (MIC) [1]: >128

SEQ ID NO:56 (Octanoyl-KWKWFW-NH2; SMILES CCCCCCCC(=O)N[C@@H](CCCCN)C(=O)N[C@@H](Cc1c[nH]c2ccccc12)C(=O)N[C@@H](CCCCN)C(=O)N[C@@H](Cc1c[nH]c2ccccc12)C(=O)N[C@@H](Cc1ccccc1)C(=O)N[C@@H](Cc1c[nH]c2ccccc12)C(N)=O)
ability to kill S. aureus in serum (in words) (MRSA): does not perform well in biological environments

KPVWPF-NH2 [SEQ ID NO: 35]
Anti-microbial activity (MIC) (Escherichia coli UB1005): >128
Anti-microbial activity (MIC) [1]: >128

LLKWPW-NH2 [SEQ ID NO: 33]
Anti-microbial activity (MIC) (Escherichia coli UB1005): >128
Anti-microbial activity (MIC) [1]: >128

H-RWRWPW-NH2 [compound 4]
Minimal Inhibitory Concentrations (Mics) (Candida albicans): 64-128 Mg/Ml

KFKSFK-NH2 [SEQ ID NO: 21]
Anti-microbial activity (MIC) (Escherichia coli UB1005): >128
Anti-microbial activity (MIC) [1]: >128

KWKKPV-NH2 [SEQ ID NO: 17]
Anti-microbial activity (MIC) (Escherichia coli UB1005): >128
Anti-microbial activity (MIC) [1]: >128

KWKFKF-NH2 [SEQ ID NO: 23]
Anti-microbial activity (MIC) (Escherichia coli UB1005): >128
Anti-microbial activity (MIC) [1]: >128

Clc1ccc(COC(Cn2ccnc2)c2ccc(Cl)cc2Cl)c(Cl)c1 (stereo not shown) [Miconazole, reference compound]
MIC (Candida albicans; [2]): > 256 µg/mL
MIC (Candida albicans; [3]): > 256 µg/mL
MIC (Candida albicans; [4]): > 256 µg/mL
MIC (Candida albicans; [5]): > 256 µg/mL
MIC (Candida albicans; [6]): > 256 µg/mL
MIC (Candida albicans; [7]): > 256 µg/mL
MIC (Candida albicans; [8]): > 256 µg/mL
MIC (Candida albicans; [9]): > 256 µg/mL
MIC (Candida albicans; [10]): 128 µg/mL (≈ 308 µM)
MIC (Candida albicans; [11]): > 256 µg/mL
MIC (Candida albicans; [12]): 128 µg/mL (≈ 308 µM)
MIC (Candida albicans; [13]): > 256 µg/mL

CC(=O)N1CCN(c2ccc(OCC3COC(Cn4ccnc4)(c4ccc(Cl)cc4Cl)O3)cc2)CC1 (stereo not shown) [Ketoconazole, reference compound]
MIC (Candida albicans; [2]): 64 µg/mL (≈ 120 µM)
MIC (Candida albicans; [3]): 8 µg/mL (≈ 15.1 µM)
MIC (Candida albicans; [4]): 8 µg/mL (≈ 15.1 µM)
MIC (Candida albicans; [5]): 16 µg/mL (≈ 30.1 µM)
MIC (Candida albicans; [6]): 32 µg/mL (≈ 60.2 µM)
MIC (Candida albicans; [7]): 8 µg/mL (≈ 15.1 µM)
MIC (Candida albicans; [8]): 16 µg/mL (≈ 30.1 µM)
MIC (Candida albicans; [9]): 128 µg/mL (≈ 241 µM)
MIC (Candida albicans; [10]): 32 µg/mL (≈ 60.2 µM)
MIC (Candida albicans; [11]): > 256 µg/mL
MIC (Candida albicans; [12]): 1 µg/mL (≈ 1.88 µM)
MIC (Candida albicans; [13]): 16 µg/mL (≈ 30.1 µM)

Oct-kfkwpw-HN2 (Octanoyl-[dK][dF][dK][dW][dP][dW]-NH2; SMILES CCCCCCCC(=O)N[C@H](CCCCN)C(=O)N[C@H](Cc1ccccc1)C(=O)N[C@H](CCCCN)C(=O)N[C@H](Cc1c[nH]c2ccccc12)C(=O)N1CCC[C@@H]1C(=O)N[C@H](Cc1c[nH]c2ccccc12)C(N)=O) [SEQ ID NO: 81]
Activity (MIC) against P. acnes (P. acnes; ATCC 6921): 4
Activity (MIC) against P. acnes (P. acnes; ATCC 6922): 8
Activity (MIC) against P. acnes (P. acnes; ATCC 6923): 8
Activity (MIC) against P. acnes (P. acnes; ATCC 11828): 8
Activity (MIC) against P. acnes (P. acnes; ATCC 12930): 2
Activity (MIC) against P. acnes (P. acnes; ATCC 25746): 0.25
Activity (MIC) against P. acnes (P. acnes; ATCC 29399): 8
Activity (MIC) against P. acnes (P. acnes; ATCC 33179): 16
Activity (MIC) against P. acnes (P. acnes; ATCC 49929): 0.125
Activity (MIC) against P. acnes (P. acnes; ATCC 51277): 8
